Assay results taken from ChEMBL document CHEMBL3882728, “Amino-substituted quinazoline derivatives as inhibitors of Beta-catenin/TCF-4 pathway and cancer treatment agents” (2009).

Experiment: Cytotoxicity against human SV5A8 cells expressing SV40 binding sites driving firefly/renilla luciferase reporter gene after 24 hrs by luminometer
Assay type: cell-based
Conditions: SV5A8, 24 h

SMILES | IC50
CNc1nc(NCc2ccc(NC(=O)c3ccc(Cl)cc3F)cc2)c2cc(C)ccc2n1 | > 2.78 µM
Cc1ccc2nc(N(C)C)nc(NCc3ccc(NC(=O)c4ccc(F)cc4)cc3)c2c1 | 5.82 to 11.6 µM
Cc1cc(C)c2nc(N3CCN[C@@H](C)C3)nc(NCc3ccc(NC(=O)c4ccc(F)cc4)cc3)c2c1 | > 5.01 µM
CNc1nc(NCc2ccc(NC(=O)c3cccnc3)cc2)c2cc([N+](=O)[O-])ccc2n1 | > 23.3 µM
Cc1ccc2c(NCc3ccc(NC(=O)C4CCN(Cc5ccccc5)CC4)cc3)nc(N3CCC3)nc2c1 | 9.6 to 17.3 µM
CNc1nc(NCc2ccc(NC(=O)c3ccc(Cl)nc3)cc2)c2cccc(C)c2n1 | 2.89 to 21.6 µM
